Reference: patent publication US20240366587A1, “USES OF A SOMATOSTATIN MODULATOR FOR THE TREATMENT OF DISEASE” (Crinetics Pharmaceuticals, Inc., priority 2021, published 2024)
Values joined by “and” are separate entries in the source; they are usually repeats but may differ in a detail not shown here. Equal entries are not always repeated.

Key:
Format in all cases: in vivo, human
[1] = Phase 1 single-and-multiple-dose study in healthy volunteers: oral glucose tolerance test / safety; conditions: for glucose concentration by 2 hours post challenge / peak glucose concentration 1 hour post oral glucose challenge: one subject
Description: A phase 1, randomized, double-blind, placebo-controlled, single and multiple ascending dose study was performed with oral Compound A at a single study center. Inclusion criteria included age 18 to 50 years; body mass index of 18-30 kg/m^2; and if female, postmenopausal by history or surgery. Exclusion criteria included presence of significant medical history.
In the single-dose phase, participants were randomized 6:2 to Compound A (1.25, 2.5, 5, 10, 20, 40, and 60 mg) or placebo in 7 cohorts (S1 to S7). Cohorts comparing oral bioavailability of solution versus capsules and the effect of a standardized high-fat, high-calorie breakfast on oral bioavailability of the capsule formulation employed the 10 mg dose level. In the multiple-dose phase, participants were randomized 6:3 to once-daily oral Compound A-HCl capsules or placebo at doses of 5 mg for 7 days (M1, Day Last=Day 7), and 10, 20, and 30 mg daily for 10 days (M2, M3, M4, Day Last=Day 10).
Safety assessments: Safety assessments included monitoring of clinical laboratory tests, cardiovascular safety monitoring (continuous Holter monitoring, ECG, telemetry), and physical examinations conducted at scheduled times throughout the study in the research units as well as post-discharge (up to 9 days after the single-dose, or up to 11 days after the last dose for multiple-dose cohorts). Adverse events and concomitant medications were recorded. Laboratory samples for clinical chemistry, hematology, coagulation tests, and urinalysis were collected under fasted conditions.
In the multiple-dose cohorts, baseline serum TSH, ACTH, and prolactin samples were collected on Day −2, and an oral glucose tolerance test (OGTT) was conducted on Day −7 or earlier. These assessments were repeated on Day 8 (M1) or Day 11 (M2 and subsequent cohorts).
Clinically significant hypoglycemia occurred in 1 subject in Cohort M3 (Compound A-HCl−10 days at 20 mg/day) at 2 and at 3 hours post-glucose challenge, and in 1 subject in Cohort M4 (Compound A-HCl−10 days at 30 mg/day) at 3 hours post-glucose challenge at the baseline assessment (Day −7).

[2] = tested on: insulin-like growth factor-1 (IGF-1); test: ACROBAT Edge Phase 2 study in acromegaly: IGF-1 levels
Description: An open label exploratory study designed to evaluate the safety, efficacy, and pharmacokinetics of Compound A (also known as paltusotine) in subjects with acromegaly that are treated with somatostatin analogue (SSA) based treatment regimens.
5 mg or 10 mg HMG capsule formulation. Multiple capsules were swallowed with water depending on dose specified for a given period/cohort. Enrolled patients began treatment with oral paltusotine 10 mg/day. The dose was up-titrated in a double-blind manner in 10-mg increments to a maximum 40 mg/day at weeks 4, 7 and 10 according to IGF-1 levels measured at weeks 2, 5, and 8, respectively. Up-titrations were performed if the investigator confirmed that the patient was tolerating the current dose and the unblinded central IGF-1 reader determined that IGF-1 was >0.9×ULN at week 2 and 5 or >1.0×ULN at week 8.
Primary Outcome Measures: Change from baseline (mean of Screening values) in insulin-like growth factor-1 (IGF-1) level [Time Frame: 13 Weeks].
The primary hypothesis was that the group would show no change in the median IGF-1 at Week 13 versus baseline.

IGF-1 = test: ACROBAT Advance long-term study: IGF-1; conditions: once daily oral, 10-40 mg/day HMG capsules; interim results
Description: ACROBAT Advance is an ongoing open-label, long-term (5 year) safety and efficacy study of paltusotine in patients rolling-over from the ACROBAT Evolve & Edge studies.
Eligible patients completing ACROBAT Edge and Evolve entered ACROBAT Advance either immediately on completion of a washout period in the parent study or after a gap during which they reverted to their routine standard of care treatment. Paltusotine therapy: initiated at 10 mg/day and titrated up to maximum dose of 40 mg/day based on IGF-1 and tolerability. Patients were administered 10 mg HMG capsules. Combination therapy was allowed for patients not reaching therapeutic targets with 40 mg/day of paltusotine monotherapy.
IGF-1 measured centrally with IDS-ISYS assay calibrated to WHO recombinant reference standard 02/254.

Structure (SMILES): N#Cc1cccc(-c2ccc3ncc(-c4cc(F)cc(F)c4)c(N4CCC(N)CC4)c3c2)c1O [Compound A, 3-(4-(4-amino-piperidin-1-yl)-3-(3,5-difluoro-phenyl)-quinolin-6-yl)-2-hydroxy-benzonitrile]
- change in fasting plasma glucose ([1]; healthy volunteers, multiple dosing up to 30 mg): not associated with significant changes in fasting plasma glucose
- treatment emergent adverse events of hyperglycemia ([1]; healthy volunteers, repeated daily dosing 5-30 mg, OGTT after 10 days of dosing): Two TEAEs of asymptomatic hyperglycemia occurred
- increase from baseline in serum glucose AUC0-3 hr ([1]; healthy volunteers, up to 30 mg, placebo 18%): up to 36%
- glucose concentration by 2 hours post challenge ([1]; Cohort M2 (10 mg/day, 10 days)): 4.3 mmol/L and 77 mg/dL
- peak glucose concentration 1 hour post oral glucose challenge ([1]; Cohort M2 (10 mg/day, 10 days)): 12.4 mmol/L and 223 mg/dL
- glucose concentration by 2 hours post challenge ([1]; Cohort M3 (20 mg/day, 10 days)): 5.8 mmol/L and 104 mg/dL
- peak glucose concentration 1 hour post oral glucose challenge ([1]; Cohort M3 (20 mg/day, 10 days)): 12.2 mmol/L and 220 mg/dL
- change of IGF-1 levels from baseline after 13 weeks of treatment ([2]; acromegaly patients previously treated with injected SRL depots, 10-40 mg/day): did not significantly change from baseline
- IGF-1 after withdrawal of treatment ([2]; acromegaly patients, washout): Rise in IGF-1 after withdrawal (within 2 weeks)
- IGF-1 level on long-term treatment (IGF-1): lowers and maintains IGF-1 at levels comparable to prior injected SRL therapy for up to 51 weeks
